Laboratory results reported in patent publication US20250171417A1, “HETEROCYCLIC DERIVATIVE, AND COMPOSITION AND PHARMACEUTICAL USE THEREOF” (Xizang Haisco Pharmaceutical Co., Ltd., priority 2021, published 2025).

These molecules were tested on Prostate cancer cells 22RV1 (assay: Experiment on inhibiting 22RV1 cell proliferation (CellTiter-Glo, 7 days)). Conditions: Homo sapiens, 168 h, 22RV1 cells, 7 days incubation, cells with nM printed beside the value, read-out: IC50 values for inhibition of 22RVI cells.
Type: cell-based
Procedure: Prostate cancer cells 22RV1 were purchased from ATCC, the cell medium was RPMI 1640+10% FBS, and the cells were cultured in an incubator at 37° C. under 5% CO2. On day 1, the cells in the exponential growth phase were collected. With a 1% css-FBS phenol red-free medium, the cell suspension was adjusted to a corresponding concentration, plated at 2000 cells/well and incubated overnight. On day 2, compounds at different concentrations were added, and the plate was placed in the incubator and incubated for further 7 days. After the incubation was completed, according to operation instructions for a CellTiter-Glo kit (Promega, G7573), 50 μL of CellTiter-Glo reagents, which were already pre-melted and equilibrated to room temperature, were added to each well, and the mixtures were uniformly mixed for 2 min using a microplate shaker. The plate was placed at room temperature for 10 min. and then […] signal values were measured using a microplate reader (PHERAstar FSX). The results were processed according to formula (I), the inhibition rate of the compound at different concentrations was calculated, and the IC50 value of the compound with an inhibition rate of 50% was calculated using origin9.2 software with DoseResp function, wherein RLUcompound was the readout of the treated group, and RLUcontrol was the average value of the DMSO vehicle control group.

IC50	SMILES
< 50 nM	Cc1nn(C2(C(=O)Nc3ccc(C(F)(F)F)cc3Cl)CCC2)c(C)c1C#CC1CN(c2ccc3c(c2)C(=O)N(C2CCC(=O)NC2=O)C3=O)C1 (centres unmarked) [Compound 166, N-(2-chloro-4-(trifluoromethyl)phenyl)-1-(4-((1-(2-(2,6-dioxopiperidin-3-yl)-1,3-dioxoisoindolin-5-yl)azetidin-3-yl)ethynyl)-3,5-dimethyl-1H-pyrazol-1-yl)cyclobutane-1-carboxamide]
< 50 nM	O=C1CCC(N2C(=O)c3ccc(N4CC(F)(C#Cc5cnn(C6(C(=O)Nc7ccc(C(F)(F)F)cc7Cl)CCC6)c5)C4)cc3C2=O)C(=O)N1 (centres unmarked) [Compound 71]
< 50 nM	O=C1CCC(N2C(=O)c3ccc(N4CC(C#Cc5cnn(C6(C(=O)Nc7ccc(C(F)(F)F)cc7C7CC7)CCC6)c5)C4)cc3C2=O)C(=O)N1 (centres unmarked) [Compound 35, N-(2-cyclopropyl-4-(trifluoromethyl)phenyl)-1-(4-((1-(2-(2,6-dioxopiperidin-3-yl)-1,3-dioxoisoindolin-5-yl)azetidin-3-yl)ethynyl)-1H-pyrazol-1-yl)cyclobutane-1-carboxamide]
< 50 nM	N#Cc1ccc(NC(=O)C2(n3cc(C#CC4CN(c5ccc6c(c5)C(=O)N(C5CCC(=O)NC5=O)C6=O)C4)cn3)CCC2)c(C2CC2)c1 (centres unmarked) [Compound 45, N-(4-cyano-2-cyclopropylphenyl)-1-(4-((1-(2-(2,6-dioxopiperidin-3-yl)-1,3-dioxoisoindolin-5-yl)azetidin-3-yl)ethynyl)-1H-pyrazol-1-yl)cyclobutane-1-carboxamide]
< 50 nM	C=CCc1cc(C(F)(F)F)ccc1NC(=O)C(C)(C)n1cc(C#CC2CN(c3ccc4c(c3)C(=O)N(C3CCC(=O)NC3=O)C4=O)C2)cn1 (centres unmarked) [Compound 169, N-(2-allyl-4-(trifluoromethyl)phenyl)-2-(4-((1-(2-(2,6-dioxopiperidin-3-yl)-1,3-dioxoisoindolin-5-yl)azetidin-3-yl)ethynyl)-1H-pyrazol-1-yl)-2-methylpropanamide]
< 100 nM	CC#Cc1cc(C(F)(F)F)ccc1NC(=O)C(C)(C)n1cc(C#CC2CN(c3ccc4c(c3)C(=O)N(C3CCC(=O)NC3=O)C4=O)C2)c(C)n1 (centres unmarked) [Compound 193, 2-(4-((1-(2-(2,6-dioxopiperidin-3-yl)-1,3-dioxoisoindolin-5-yl)azetidin-3-yl)ethynyl)-3-methyl-1H-pyrazol-1-yl)-2-methyl-N-(2-(prop-1-yn-1-yl)-4-(trifluoromethyl)phenyl) propanamide]
< 100 nM	N#Cc1ccc(NC(=O)C2(n3cc(C#CC4CN(c5ccc6c(c5)C(=O)N(C5CCC(=O)NC5=O)C6=O)C4)cn3)CCC2)cc1C1CC1 (centres unmarked) [Compound 40, N-(4-cyano-3-cyclopropylphenyl)-1-(4-((1-(2-(2,6-dioxopiperidin-3-yl)-1,3-dioxoisoindolin-5-yl)azetidin-3-yl)ethynyl)-1H-pyrazol-1-yl)cyclobutane-1-carboxamide]
< 100 nM	[2H]C([2H])([2H])C(C(=O)Nc1ccc(C(F)(F)F)cc1C#CC)(n1cc(C#CC2CN(c3ccc4c(c3)C(=O)N(C3CCC(=O)NC3=O)C4=O)C2)cn1)C([2H])([2H])[2H] (centres unmarked) [Compound 175, 2-(4-((1-(2-(2,6-dioxopiperidin-3-yl)-1,3-dioxoisoindolin-5-yl)azetidin-3-yl)ethynyl)-1H-pyrazol-1-yl)-2-(methyl-d3)—N-(2-(prop-1-yn-1-yl)-4-(trifluoromethyl)phenyl) propanamide-d3]
< 50 nM	CC(C)(C(=O)Nc1ccc(C#N)c2ccccc12)n1cc(C#CC2(F)CN(c3ccc4c(c3)C(=O)N(C3CCC(=O)NC3=O)C4=O)C2)cn1 (centres unmarked) [Compound 68, N-(4-cyanonaphthalen-1-yl)-2-(4-(2-(1-(2-(2,6-dioxopiperidin-3-yl)-1,3-dioxo-2,3-dihydro-1H-isoindol-5-yl)-3-fluoroazetidin-3-yl)ethynyl)-1H-pyrazol-1-yl)-2-methylpropanamide]
< 100 nM	CC(C)(C(=O)Nc1ccc(C(F)(F)F)cc1C=C(F)F)n1cc(C#CC2CN(c3ccc4c(c3)C(=O)N(C3CCC(=O)NC3=O)C4=O)C2)cn1 (centres unmarked) [Compound 190, N-(2-(2,2-difluorovinyl)-4-(trifluoromethyl)phenyl)-2-(4-((1-(2-(2,6-dioxopiperidin-3-yl)-1,3-dioxoisoindolin-5-yl)azetidin-3-yl)ethynyl)-1H-pyrazol-1-yl)-2-methylpropanamide]

SMILES	IC50
N#Cc1ccc(NC(=O)C2(n3cc(C#CC4CN(c5ccc6c(c5)C(=O)N(C5CCC(=O)NC5=O)C6=O)C4)cn3)CCCC2)cc1C(F)(F)F (centres unmarked) [Compound 48, N-(4-cyano-3-(trifluoromethyl)phenyl)-1-(4-((1-(2-(2,6-dioxopiperidin-3-yl)-1,3-dioxoisoindolin-5-yl)azetidin-3-yl)ethynyl)-1H-pyrazol-1-yl)cyclopentane-1-carboxamide]	< 100 nM

Same assay, conditions: Homo sapiens, 168 h, 22RV1 cells, 7 days incubation, cells without a unit of their own (μM), read-out: IC50 values for inhibition of 22RVI cells

IC50	SMILES
< 1000 nM	O=C1CCC(N2C(=O)c3ccc(N4CCC5(CC4)CC(CN4CCC(c6cnn(C7(C(=O)Nc8ccc(C(F)(F)F)cc8Cl)CCC7)c6)CC4)C5)cc3C2=O)C(=O)N1 (centres unmarked) [Compound 85, N-(2-chloro-4-(trifluoromethyl)phenyl)-1 (4-(1-((7-(2-(2,6-dioxopiperidin-3-yl)-1,3-dioxoisoindolin-5-yl)-7-azaspiro[3.5]nonan-2-yl)methyl)piperidin-4-yl)-1H-pyrazol-1-yl)cyclobutane-1-carboxamide]
< 1000 nM	CC(C)(C(=O)Nc1ccc(C#N)c2ncccc12)n1cc(C#CC2CN(c3ccc4c(c3)C(=O)N(C3CCC(=O)NC3=O)C4=O)C2)cn1 (centres unmarked) [Compound 43, N-(8-cyanoquinolin-5-yl)-2-(4-((1-(2-(2,6-dioxopiperidin-3-yl)-1,3-dioxoisoindolin-5-yl)azetidin-3-yl)ethynyl)-1H-pyrazol-1-yl)-2-methylpropanamide]
< 1000 nM	O=C1CCC(N2C(=O)c3ccc(N4CC(C#Cc5cn(C6(C(=O)Nc7ccc(C(F)(F)F)cc7Cl)CCC6)cn5)C4)cc3C2=O)C(=O)N1 (centres unmarked) [Trifluoroacetate of compound 139, N-(2-chloro-4-(trifluoromethyl)phenyl)-1-(4-((1-(2-(2,6-dioxopiperidin-3-yl)-1,3-dioxoisoindolin-5-yl)azetidin-3-yl)ethynyl)-1H-imidazol-1-yl)cyclobutane-1-carboxamide]
< 1000 nM	CC(C)(C(=O)Nc1ccc(C#N)c(F)c1)n1cc(C#CC2CN(c3ccc4c(c3)C(=O)N(C3CCC(=O)NC3=O)C4=O)C2)cn1 (centres unmarked) [Compound 32, N-(4-cyano-3-fluorophenyl)-2-(4-((1-(2-(2,6-dioxopiperidin-3-yl)-1,3-dioxoisoindolin-5-yl)azetidin-3-yl)ethynyl)-1H-pyrazol-1-yl)-2-methylpropanamide]
< 1000 nM	COc1cc(NC(=O)C(C)(C)n2cc(C#CC3CN(c4ccc5c(c4)C(=O)N(C4CCC(=O)NC4=O)C5=O)C3)cn2)ccc1C#N (centres unmarked) [Compound 23, N-(4-cyano-3-methoxyphenyl)-2-(4-((1-(2-(2,6-dioxopiperidin-3-yl)-1,3-dioxoisoindolin-5-yl)azetidin-3-yl)ethynyl)-1H-pyrazol-1-yl)-2-methylpropanamide]

SMILES	IC50
CC(C)(C(=O)Nc1ccc(C#N)c(C(F)(F)F)c1)n1cc(C#CC2CN(c3cc4c(cc3F)C(=O)N(C3CCC(=O)NC3=O)C4=O)C2)cn1 (centres unmarked) [Compound 3]	< 1000 nM
